Results as given in patent US8835421B2, “Benzimidazole linked pyrrolo[2,1-c[1,4] benzodiazepine hybrids as potential antitumour agents and process for the preparation thereof” (Council of Scientific and Industrial Research, priority 2008, dated 2014).

Experiments:
Breast cancer cell lines = assay: NCI in vitro anticancer screen (SRB, 48 h), breast; type: cell-based, human; conditions: average of six to nine cell lines; for GI50: Homo sapiens, read-out: Log10 GI50 (converted)
Method: (§1) Anticancer activity: In vitro biological activity studies were carried out at the National Cancer Institute (USA).
(§2) The compounds were evaluated for in vitro anticancer activity against sixty human tumour cells derived from nine cancer types (leukemia, non-small-cell lung, colon, CNS, melanoma, ovarian, prostate, and breast cancer) as shown in Table 3. For each compound, dose response curves for each cell line were measured at a minimum of five concentrations at 10 fold dilutions. A protocol of 48 h continuous drug exposure was used and a sulforhodamine B (SRB) protein assay was used to estimate cell viability or growth. The concentration causing 50% cell growth inhibition (GI50), total cell growth inhibition (TGI 0% growth) and 50% cell death (LC50, −50% growth) compared with the control was calculated. The mean graph midpoint values of log10 TGI and log10 LC50 as well as log10 GI50 for 8c, 8e, 11a, 11c and 14 are listed in Table 2.
(§3) Each cancer type represents the average of six to nine different cancer cell lines.

Renal cancer cell lines = assay: NCI in vitro anticancer screen (SRB, 48 h), renal; type: cell-based, human; conditions: average of six to nine cell lines; for GI50: Homo sapiens, read-out: Log10 GI50 (converted)
Method: as §1, §2, §3

Colon cancer cell lines = assay: NCI in vitro anticancer screen (SRB, 48 h), colon; type: cell-based, human; conditions: average of six to nine cell lines; for GI50: Homo sapiens, read-out: Log10 GI50 (converted)
Method: as §1, §2, §3

[1] = test system: Ovarian cancer cell lines; assay: NCI in vitro anticancer screen (SRB, 48 h), ovarian; type: cell-based, human; conditions: average of six to nine cell lines; for GI50: Homo sapiens, read-out: Log10 GI50 (converted)
Method: as §1, §2, §3

sixty human tumour cells = assay: NCI in vitro anticancer screen (SRB, 48 h), mean graph midpoints over all cell lines; type: cell-based; conditions: 48 h continuous drug exposure, SRB assay; for Log10LC50 mean graph midpoint (MG_MID): 50% cell death; for Log10GI50 mean graph midpoint (MG_MID): 50% cell growth inhibition; for Log10TGI mean graph midpoint (MG_MID): total cell growth inhibition
Method: as §1, §2

[2] = test system: Prostate cancer cell lines; assay: NCI in vitro anticancer screen (SRB, 48 h), prostate; type: cell-based, human; conditions: average of six to nine cell lines; for GI50: Homo sapiens, read-out: Log10 GI50 (converted)
Method: as §1, §2, §3

[3] = test system: Melanoma cancer cell lines; assay: NCI in vitro anticancer screen (SRB, 48 h), melanoma; type: cell-based, human; conditions: average of six to nine cell lines; for GI50: Homo sapiens, read-out: Log10 GI50 (converted)
Method: as §1, §2, §3

[4] = test system: Non-small-cell-lung cancer cell lines; assay: NCI in vitro anticancer screen (SRB, 48 h), non-small-cell lung; type: cell-based, human; conditions: average of six to nine cell lines; for GI50: Homo sapiens, read-out: Log10 GI50 (converted)
Method: as §1, §2, §3

[5] = test system: Leukemia cancer cell lines; assay: NCI in vitro anticancer screen (SRB, 48 h), leukemia; type: cell-based, human; conditions: average of six to nine cell lines; for GI50: Homo sapiens, read-out: Log10 GI50 (converted)
Method: as §1, §2, §3

calf thymus DNA (CT-DNA) = assay: Thermal denaturation studies with duplex-form calf thymus DNA; type: binding; conditions: [PBD]:[DNA] 1:5, CT-DNA 100 μM, ligand 20 μM, sodium phosphate buffer pH 7.00; for ΔTm after incubation at 37° C. for 0 h: 0 h incubation at 37° C.; for ΔTm after incubation at 37° C. for 18 h: 18 h incubation at 37° C.
Method: Compounds have been subjected to thermal denaturation studies with duplex-form calf thymus DNA (CT-DNA) using an modification of a reported procedure (Newman, M. S. Carcinog-compr. Surv. 1976, 1, 203; (b) Hecht, S. S.; Loy, M.; Hoffman, Carcinog-compr. Surv. 1976, 1, 325). Working solutions in aqueous buffer (10 mM NaH2PO4/Na2HPO4, 1 mM Na2EDTA, pH 7.00+0.01) containing CT-DNA (100 μm in phosphate) and the PBD (20 μm) have been prepared by addition of concentrated PBD solutions in DMSO to obtain a fixed [PBD]/[DNA] molar ratio of 1:5. The DNA-PBD solutions have been incubated at 37° C. for 0 and 18 h prior to analysis. Samples have been, monitored at 260 nm using a Beckman DU-800 spectrophotometer fitted with high performance temperature controller, and heated at 1° C. min^−1 in the 40-110° C. range. DNA helix→coil transition temperatures (Tm) have been obtained from the maxima in the d(A260)/d T derivative plots. Drug-induced alterations in DNA melting behavior are given by: ΔTm=Tm(DNA+PBD)−Tm(DNA alone), where the Tm value for the PBD-free CT-DNA is 69.1±0.01.
The DNA binding activity for these novel C8-linked benzimidazole-PBD hybrids has been examined by thermal denaturation studies using calf thymus (CT) DNA. […] The data for the compounds 8a-g, 11a-d and 14 is included in Table 1 for comparison.

CNS cancer cell lines = assay: NCI in vitro anticancer screen (SRB, 48 h), CNS; type: cell-based, human; conditions: average of six to nine cell lines; for GI50: Homo sapiens, read-out: Log10 GI50 (converted)
Method: as §1, §2, §3

Row | SMILES | GI50 (Breast cancer cell lines) | GI50 (Renal cancer cell lines) | GI50 (Colon cancer cell lines) | GI50 [1] | Log10LC50 mean graph midpoint (MG_MID) (sixty human tumour cells) | Log10GI50 mean graph midpoint (MG_MID) (sixty human tumour cells) | Log10TGI mean graph midpoint (MG_MID) (sixty human tumour cells) | GI50 [2] | GI50 [3] | GI50 [4] | GI50 [5] | ΔTm after incubation at 37° C. for 0 h (calf thymus DNA (CT-DNA)) | ΔTm after incubation at 37° C. for 18 h (calf thymus DNA (CT-DNA)) | GI50 (CNS cancer cell lines) | other results
1 | COc1cc2c(cc1OCCCCn1c(-c3cccs3)nc3ccccc31)N=C[C@@H]1CCCN1C2=O [Compound 8e, 7-Methoxy-8-{4-[2-(2-thienyl)-1H-benzimidazol-1-yl]butyl}oxy-(11aS)-1,2,3,11a-tetrahydro-5H-pyrrolo[2,1-c][1,4]benzodiazepin-5-one] | 912 nM | 1580 nM | 1950 nM | 2000 nM | −4.51 | −5.81 | −5.18 | 1320 nM | 1580 nM | 2090 nM | 1000 nM | 0.1 °C | 1.0 °C | 1580 nM | 
2 | COc1cc2c(cc1OCCCn1c(-c3ccco3)nc3ccccc31)N=C[C@@H]1CCCN1C2=O [Compound 8a, 7-Methoxy-8-{3-[2-(2-furyl)-1H-benzimidazol-1-yl]propyl}oxy-(11aS)-1,2,3,11a-tetrahydro-5H-pyrrolo[2,1-c][1,4]benzodiazepin-5-one] |  |  |  |  |  |  |  |  |  |  |  | 5.1 °C | 6.1 °C |  | 
3 | COc1cc2c(cc1OCCCn1c(-c3ccccn3)nc3ccccc31)N=C[C@@H]1CCCN1C2=O [Compound 11a, 7-Methoxy-8-{3-[2-(2-pyridyl)-1H-benzimidazol-1-yl]propyl}oxy-(11aS)-1,2,3,11a-tetrahydro-5H-pyrrolo[2,1-c][1,4]benzodiazepin-5-one] | 1050 nM | 1410 nM | 1910 nM | 1620 nM | −4.42 | −5.75 | −5.14 | 1350 nM | 2190 nM | 1580 nM | 3090 nM | 3.0 °C | 4.2 °C | 2510 nM | 
4 | COC(=O)c1ccc2nc(-c3cn(C)c4ccccc34)n(CCCCOc3cc4c(cc3OC)C(=O)N3CCC[C@H]3C=N4)c2c1 [Compound 14, Methyl-1-[(4-(11aS)-7-methoxy-1,2,3,11a-tetrahydro-5H-pyrrolo[2,1-c][1,4]benzodiazepin-5-one-8-yl)oxybutyl]-2-(1-methyl-3-indolyl)benzimidazol-6-carboxylate] |  |  |  |  | −4.92 | −6.19 | −5.65 |  |  |  |  | 1.5 °C | 2.0 °C |  | Log10 GI50 (Breast cancer cell lines): −6.14 mol/L; Log10 GI50 (Renal cancer cell lines): −6.10 mol/L; Log10 GI50 (Colon cancer cell lines): −6.04 mol/L; Log10 GI50 [1]: −6.04 mol/L; Log10 GI50 [2]: −6.62 mol/L; Log10 GI50 [3]: −6.27 mol/L; Log10 GI50 [4]: −6.08 mol/L; Log10 GI50 [5]: −6.88 mol/L; Log10 GI50 (CNS cancer cell lines): −6.00 mol/L
5 | COc1cc2c(cc1OCCCCCn1c(-c3ccco3)nc3ccccc31)N=C[C@@H]1CCCN1C2=O [Compound 8c, 7-Methoxy-8-{5-[2-(2-furyl)-1H-benzimidazol-1-yl]pentyl}oxy-(11aS)-1,2,3,11a-tetrahydro-5H-pyrrolo[2,1-c][1,4]benzodiazepin-5-one] | < 16.2 nM | < 12 nM | < 12 nM | < 10 nM | −4.60 | −7.91 | −6.89 | < 22.9 nM | < 12 nM | < 12 nM | < 10 nM | 5.1 °C | 7.0 °C | < 10 nM | 
6 | COc1cc2c(cc1OCCCn1c(-c3cccn3C)nc3ccccc31)N=C[C@@H]1CCCN1C2=O [Compound 8g, 7-Methoxy-8-{3-[2-(1-Methyl-2-pyrrolyl)-1H-benzimidazol-1,4]propyl}-oxy-(11aS)-1,2,3,11a-tetrahydro-5H-pyrrolo[2,1-c][1,4]benzodiazepin-5-one] |  |  |  |  |  |  |  |  |  |  |  | 2.0 °C | 3.1 °C |  | 
7 | COc1cc2c(cc1OCCCCCn1c(-c3cccs3)nc3ccccc31)N=C[C@@H]1CCCN1C2=O [Compound 8f, 7-Methoxy-8-{5-[2-(2-thienyl)-1H-benzimidazol-1-yl]pentyl}oxy-(11aS)-1,2,3,11a-tetrahydro-5H-pyrrolo[2,1-c][1,4]benzodiazepin-5-one] |  |  |  |  |  |  |  |  |  |  |  | 6.1 °C | 6.1 °C |  | 
8 | CCOC(=O)c1ccc2nc(-c3ccc(OCc4ccccc4)cc3)n(CCCCCOc3cc4c(cc3OC)C(=O)N3CCC[C@H]3C=N4)c2c1 [Compound 11d, Ethyl-2-[4-(benzyloxy)phenyl]-[(5-(11aS)-7-methoxy-1,2,3,11a-tetrahy-dro-5H-pyrrolo[2,1-c][1,4]benzodiazepin-5-one-8-yl)oxypentyl]-2-benzimidazol-6-carboxylate] |  |  |  |  |  |  |  |  |  |  |  | 2.0 °C | 3.0 °C |  | 
9 | COc1cc2c(cc1OCCCn1c(-c3cccs3)nc3ccccc31)N=C[C@@H]1CCCN1C2=O [Compound 8d, 7-Methoxy-8-{3-[2-(2-thienyl)-1H-benzimidazol-1-yl]propyl}oxy-(11aS)-1,2,3,11a-tetrahydro-5H-pyrrolo[2,1-c][1,4]benzodiazepin-5-one] |  |  |  |  |  |  |  |  |  |  |  | 3.9 °C | 5.1 °C |  | 
10 | COc1cc2c(cc1OCCCCCn1c(-c3ccccn3)nc3ccccc31)N=C[C@@H]1CCCN1C2=O [Compound 11b, 7-Methoxy-8-{5-[2-(2-pyridyl)-1H-benzimidazol-1-yl]pentyl}oxy-(11aS)-1,2,3,11a-tetrahydro-5H-pyrrolo[2,1-c][1,4]benzodiazepin-5-one] |  |  |  |  |  |  |  |  |  |  |  | 1.0 °C | 1.2 °C |  | 
11 | COc1cc2c(cc1O)N=CC1CCCN1C2=O (centres unmarked) [DC-81, reference compound] |  |  |  |  |  |  |  |  |  |  |  | 0.3 °C | 0.7 °C |  | 
12 | COc1cc2c(cc1OCCCCn1c(-c3ccco3)nc3ccccc31)N=C[C@@H]1CCCN1C2=O [Compound 8b, 7-Methoxy-8-{4-[2-(2-furyl)-1H-benzimidazol-1-yl]butyl}oxy-(11aS)-1,2,3,11a-tetrahydro-5H-pyrrolo[2,1-c][1,4]benzodiazepin-5-one] |  |  |  |  |  |  |  |  |  |  |  | 0.1 °C | 1.0 °C |  | 
13 | COc1cc2c(cc1OCCCCCn1c(-c3ccc(OCc4ccccc4)cc3)nc3ccc(N4CCOCC4)cc31)N=C[C@@H]1CCCN1C2=O [Compound 11c, 7-Methoxy-8-{5-[2-[(4-(benzyloxy)phenyl)-6-morpholino]benzimidazol-1-yl]pentyl}oxy-(11aS)-1,2,3,11a-tetrahydro-5H-pyrrolo[2,1-c][1,4]benzodiazepin-5-one] | 1550 nM | 759 nM | 2290 nM | 2190 nM | −4.24 | −5.83 | −5.00 | 2190 nM | 1550 nM | 1950 nM | 603 nM | 2.9 °C | 3.2 °C | 2690 nM | 
